This note sets out measurements from ChEMBL document CHEMBL1129549, “Complexes of HIV-1 reverse transcriptase with inhibitors of the HEPT series reveal conformational changes relevant to the design of potent non-nucleoside inhibitors” (J Med Chem, 1996).

The target of this experiment is Human immunodeficiency virus type 1 reverse transcriptase (Human immunodeficiency virus 1, UniProt Q72547). As to the kind of experiment: Inhibitory activity against HIV-1 reverse transcriptase.

Compound `Cc1c(Sc2ccccc2)n(COCCO)c(=O)[nH]c1=O` [HEPT] returned an IC50 of 17 µM. Turning to `CC(C)c1c(Cc2ccccc2)n(COCc2ccccc2)c(=O)[nH]c1=O`, the IC50 came to 0.006 µM.
